The values that follow come from US20120264231A1, “ASSAY FOR ORAI CALCIUM CHANNEL REGULATORS” (IMMUNE DISEASE INSTITUTE, INC., priority 2009, published 2012).

Where two headings read alike, the source gives them in different places.

In experiment [1] the test system is P pastoris cells that were not engineered to express ORAI3. On the procedure:
(§1) Human ORAI3 was expressed in P. pastoris as described below. Then ^45Ca^2+ uptake was measured in a suspension of P. pastoris cells expressing ORAI3, after addition of 2-aminoethoxydiphenyl borate (2-APB), a compound known to activate ORAI3 expressed in mammalian cells.
• Streaked out Pichia glycerol stock on RDB-plate • Grew 2-5 days at 30° C. (until colonies are large enough to easily remove) Seeded 5 mL MGY medium with 1 colony • Grew 2 days in 50 mL Falcon tube (cap partially unscrewed but taped on to allow aeration), 250 rpm, 30° C. • Seeded 50 mL MGY with the 5 mL culture (use a yeast-specific baffled flask; if scaled up, the volume of the culture was 1/10th the volume of the flask) • Grew o/n, 30° C., 250 rpm • At OD ˜2-3, spun down, checked OD and resuspended in MMY at an approximate OD of 6 (i.e., 6×5E7 cells/mL) • Grew 4 h at 28.5° C., 250 rpm, 28.5° C., with the top of the flask covered in gauze (not foil or a lid—a lot of aeration needed for induction. The temperature was under 30° C.) • Measured OD • Washed 3×25 mL in Solution A • Resuspended in Solution A for a final OD of 2 (1×10^8 cells/mL) […]

A further experiment deals with human ORAI3 (Homo sapiens, UniProt Q9BRQ5). The conditions noted are these: for ^45Ca^2+ uptake (cpm): 75 μM 2-APB. The procedure:
as §1
Individual colonies were picked, and ORAI3 protein expression was induced by growth for eight hours in MMY medium (containing 0.5% methanol), whose formulation is given below. Cells were collected by centrifugation, and disrupted by vortexing in an Eppendorf tube with 0.5 mm glass beads. Beads, unbroken cells, and debris were removed by centrifugation at 5000 rpm in a benchtop centrifuge. The supernatant from that centrifugation was centrifuged at 100,000×g to pellet cell membranes. Cell membranes were resuspended, protein concentrations determined by Lowry or Bradford assay, and an equal amount of protein from each sample subjected to SDS-polyacrylamide gel electrophoresis and western blotting. The relative levels of Myc-ORAI3 expressed by individual colonies were compared by western blotting with antibody to the Myc tag. Colonies expressing relatively high levels of ORAI3 protein were used for the ^45Ca^2+ uptake assay.
• Streaked out Pichia glycerol stock on RDB-plate • Grew 2-5 days at 30° C. (until colonies are large enough to easily remove) Seeded 5 mL MGY medium with 1 colony • Grew 2 days in 50 mL Falcon tube (cap partially unscrewed but taped on to allow aeration), 250 rpm, 30° C. • Seeded 50 mL MGY with the 5 mL culture (use a yeast-specific baffled flask; if scaled up, the volume of the culture was 1/10th the volume of the flask) • Grew o/n, 30° C., 250 rpm • At OD ˜2-3, spun down, checked OD and resuspended in MMY at an approximate OD of 6 (i.e., 6×5E7 cells/mL) • Grew 4 h at 28.5° C., 250 rpm, 28.5° C., with the top of the flask covered in gauze (not foil or a lid—a lot of aeration needed for induction. The temperature was under 30° C.) • Measured OD • Washed 3×25 mL in Solution A • Resuspended in Solution A for a final OD of 2 (1×10^8 cells/mL)
• (Prepared everything else: 1 μCi/μL ^45CaCl2, 1 mL Solution S aliquots in tubes that can hold at least 2 mL, tips, etc.) • Spun sample (either 1 mL or the multiple-mL timepoint aliquot) down at 2000×g and resuspended in an equal volume of Solution C • (where applicable, added 2-APB or other things such as Solution S or lanthanum here. 75 μM 2-APB with Orai3.) • Added 1 μCi ^45CaCl2/Ml • Incubated as appropriate • When timepoint was taken, 1 mL sample (gently pipetted up and down, since Pichia settle) and added to 1 mL Solution S • Collected all samples • (This was repeated for each sample.) Presoaked 2.5 cm Whatman GF/F filter in place on the filter apparatus with 1 mL Solution S • Added the 2 mL sample/Solution S mix to the column • Turned on the vacuum and wash 3×15 mL with Solution W • Let filter dry under vacuum & removed to scintillation vial • Placed filter flat on the bottom of the vial, yeast-side up • Carefully added scintillation fluid • Counted in scintillation counter (^45Ca settings, if possible: window is 0-750, quench curve calibrations)

In another experiment the test system is STIM1−/− T cells. The experiment in a line: Single-cell [Ca2+]i measurement in STIM1−/− T cells expressing STIM1 fragments. In kind it is cell-based, murine. The text has this: To determine the competence of STIM 1 fragments to activate ORAI1 in mammalian cells, Myc-tagged STIM 1^CT and its truncated variants were introduced by retroviral expression into STIM1−/− T cells, and their ability to elevate resting Ca^2+ permeability was examined in cells loaded with Fura-2. As in human Jurkat T cells (Huang, G. N., et al., (2006); supra), expression of the soluble cytoplasmic portion of STIM 1 activated Ca^2+ influx into STIM1−/− murine T cells (FIG. 11). Elevated Ca^2+ permeability was evident in a marked increase in cytoplasmic [Ca^2+] on changing to medium containing 2 mM Ca^2+ after brief exposure to nominally Ca^2+-free medium. […] Retroviral vector alone conferred no constitutive influx above the level in control cells, as previously shown (Oh-hora, M., et al., (2008), supra).
Retroviral expression plasmids encoding mouse STIM 1 and its cytoplasmic fragments (residues 233-685, 233-600, 233-498, or 233-463) were constructed by inserting the corresponding coding sequences between the XhoI and EcoRI sites of the vector pMSCV-CITE-eGFP-PGK-Puro (Clontech), which allows for coexpression of the inserted gene, GFP, and a puromycin resistance gene. GFP expression was used to estimate transducing efficiency.
Primary CD4^+ cells were purified from spleen and lymph nodes of Stim1^f1/f1 CD4-Cre^+ mice using Dynal magnetic beads (Invitrogen) following the manufacturer's instructions. Purified T cells were stimulated with anti-CD3 and anti-CD28, transduced with retroviruses obtained from transfected Phoenix packaging cells, and further expanded in IL-2-containing medium as described (Oh-hora, M., et al., Nat Immunol 9, 432-443 (2008); Ansel, K. M., et al., Nat Immunol 5, 1251-1259 (2004)). The transduction efficiency (>80%) was estimated by evaluating GFP expression using flow cytometry.
Retrovirus-transduced CD4^+ cells isolated from Stim1^f1/f1 CD4-Cre^+ mice were incubated overnight in IL-2 free RPMI medium and loaded with 2 μM Fura-2-acetoxylmethyl ester (Invitrogen) for 45 min at ambient temperature in the dark. T cells were further attached to coverslips precoated with 0.01% poly-L-lysine, mounted to a RC-20 closed-bath flow chamber (Warner Instrument), and bathed in Ringer's solution (155 mM NaCl, 4.5 mM KCl, 2 mM CaCl2, 1 mM MgCl2, 10 mM D-glucose and 5 mM HEPES, pH 7.4). For nominally Ca^2+-free Ringer's solution CaCl2 was replaced with MgCl2. After 5 minutes of equilibration in Ringer's solution, [Ca^2+]i measurement commenced with ˜3 min perfusion of T cells with Ca^2+-free Ringer's solution at ambient temperature, followed by perfusion of Ringer's solution containing 2 mM CaCl2. The cycle was repeated once with final addition of Ringer's solution supplemented with 2 μM LaCl3 to block Ca^2+ flux. Images were acquired using a Zeiss Axiovert S200 epifluorescence microscope and OpenLab imaging analysis software (Improvision). The fluorescence data (F340 nm/F380 nm) were collected every 4 s and analyzed as described (Oh-hora, M., et al., (2008), supra; Feske, S., et al., Nature 441, 179-185 (2006)). In each experiment, for each experimental condition, 50-100 GFP-positive CD4+ T cells were analyzed.

The target in another experiment is ORAI1 (E106Q) (Homo sapiens, UniProt Q96D31, E106Q). The experiment in a line: Tb3+ luminescence resonance energy transfer, lanthanide binding to ORAI1. Further details: Human ORAI1 (65-301) with an N-terminal FLAG tag was subcloned into the pPIC3.5K vector; made in house; host or cells: Pichia pastoris (membranes). On the procedure: Tb3+ luminescence resonance energy transfer (Tb3+-LRET) experiments were performed on a FluoroLog®-3 spectrofluorometer (HORIBA Scientific) with a 1-cm lengthpath cuvette at ambient temperature. Emission spectra were collected from 500 to 600 nm with the excitation set at 282 nm, or at 295 nm to minimize the contribution from tyrosine. The slit widths for excitation and emission were set at 4 nm and 8 nm, respectively. A glass filter with cutoff of ˜320 nm was used to circumvent light scattering. […] Spectra from membranes lacking ORAI1, with the same total membrane protein content, served as negative control.
Chain of ORAI1 (E106Q) (Q96D31 65-301 E106Q): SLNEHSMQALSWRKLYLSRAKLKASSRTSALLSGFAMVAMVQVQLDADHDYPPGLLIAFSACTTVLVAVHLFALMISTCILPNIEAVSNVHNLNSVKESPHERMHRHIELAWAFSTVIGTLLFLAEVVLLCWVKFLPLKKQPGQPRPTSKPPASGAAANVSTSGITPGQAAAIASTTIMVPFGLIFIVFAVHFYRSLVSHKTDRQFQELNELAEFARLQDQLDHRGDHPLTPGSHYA
In each case, a scan of luminescence emission from membrane suspension alone was obtained, then Tb3+ was added into the cuvette and a second scan was performed (FIG. 12). Protein content of the two samples was the same. The presence of equivalent amounts of membrane microsomes was also evidenced by identical light scattering in the two cases prior to addition of Tb3+. Characteristic Tb3+ emission peaks at 547 nm and 589 nm were prominent in the ORAI sample, attributable to energy transfer from one or more of the native tryptophan residues of the protein.

Experiment [2] addresses endogenous CRAC channels (ORAI1) of STIM1-/- murine T cells (mouse) (UniProt Q8BWG9). The experiment can be described thus: cell-based or functional assay.

Chain of endogenous CRAC channels (ORAI1) of STIM1-/- murine T cells (mouse) (Q8BWG9 whole entry): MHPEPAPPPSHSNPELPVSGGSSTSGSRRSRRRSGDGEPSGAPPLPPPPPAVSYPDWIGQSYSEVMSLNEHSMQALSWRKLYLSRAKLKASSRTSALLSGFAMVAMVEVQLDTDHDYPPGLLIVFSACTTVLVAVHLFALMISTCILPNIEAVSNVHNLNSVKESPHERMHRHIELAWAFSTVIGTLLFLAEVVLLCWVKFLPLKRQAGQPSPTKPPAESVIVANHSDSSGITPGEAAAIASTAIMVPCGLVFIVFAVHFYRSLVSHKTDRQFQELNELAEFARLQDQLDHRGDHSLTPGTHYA

With `NCCOB(c1ccccc1)c1ccccc1` [2-APB, 2-aminoethoxydiphenyl borate], the “effect on ^45Ca^2+ uptake” value in experiment [1] is on record as “did not have this effect”. Further, the “rate and extent of ^45Ca^2+ uptake” value at human ORAI3 (75 μM 2-APB versus control suspensions without 2-APB) is listed as “increased”. Further, the “^45Ca^2+ uptake (cpm)” value on human ORAI3 (0.5 min) is 2729.9 cpm; at human ORAI3 (1 min), 3137.3 cpm; at human ORAI3 (2 min), 4662.1 cpm; at human ORAI3 (4 min) it was 6019.2 cpm; on human ORAI3 (~0.25 min) it was 1913.5 cpm.
With `[Cl][La]([Cl])[Cl]` [La^3+, LaCl3, reference compound], the “cytoplasmic [Ca^2+] upon exposure to La^3+” value in the experiment on STIM1−/− T cells (2 μM LaCl3, continuing presence of external Ca^2+) is given as “rapid decline”.
As to `[Tb+3]` [Tb3+], at ORAI1 (E106Q) (Pichia membranes containing ORAI1 (E106Q), Tb3+ 10-50 μM), the “Tb3+ emission peaks at 547 nm and 589 nm” value is “prominent”. Moreover, the “Tb3+-LRET signal” value on ORAI1 (E106Q) (solubilized ORAI1) was “specific Tb3+-LRET signal”.
In turn, “Myc-tagged STIM1^CT (mouse STIM1 233-685) expressed by retrovirus in STIM1-/- T cells (from UniProt P70302 233-685)” gave a steepest rise of cytoplasmic [Ca^2+] (Fura-2, single cells) in experiment [2] of 15 nM/s.
On to “STIM1 (233-600): truncated mouse STIM1 cytoplasmic fragment, residues 233-600”, for which, in the experiment on STIM1−/− T cells (compared with STIM1^CT), the “maximum levels of cytoplasmic Ca^2+” value is “somewhat less than with STIM1^CT” and the “rate of rise of cytoplasmic Ca^2+” value is listed as “nearly comparable to the rate with STIM 1^CT”. Further, in the experiment with STIM1−/− T cells (retroviral expression, Fura-2), the “constitutive Ca^2+ influx” value is recorded as “activated a prominent constitutive Ca^2+ influx”.
